This is an account of results in publication PMC7180728, “Novel Anthraquinone Compounds Inhibit Colon Cancer Cell Proliferation via the Reactive Oxygen Species/JNK Pathway” (Molecules, 2020).

Values after ≈ are worked out from the molar mass of the structure shown. Read-outs that look alike come from different tables or passages of the source. Residues, ends and D or L forms follow the SMILES beside them. *: point of attachment. Cbz = O=C(OCc1ccccc1)*; CH2F = FC* Where only a bound is given, the exact number is not on record here.

Data set [1] relates to SW480. Briefly: MTT cell proliferation assay, SW480. The format is cell-based. Particulars: Homo sapiens, SW480 colon cancer, 48 h. As for the experimental part: (§1) The effects of the synthesized amide anthraquinone derivatives on the proliferative activity of eight human cancerous cell lines (EC9706, MCF-7, SGC-7901, HepG2, QBC939, HeLa, HCT116 and SW480) in addition to two normal human cell lines (colorectal FHC and liver HL7702) were evaluated using the standard MTT assay.
(§2) The human esophageal cancer cell line EC9706 was obtained from Cancer Hospital and Institute by Prof. Ming Rong Wang, Chinese Academy Medical of Sciences. The human colorectal carcinoma cell lines HCT116 and SW480, hepatoma cell line HepG2, cervical carcinoma cell line HeLa, breast cancer cell line MCF-7, gastric cancer cell line SGC-7901, cholangiocarcinoma cell line QBC939, normal fetal colon cell line FHC and liver cell line HL-7702 were obtained from the Cell Bank of the Shanghai Chinese Academy of Sciences. All cells were cultured in RPMI 1640 medium containing 100 U/mL penicillin and streptomycin and 10% fetal bovine serum and maintained at 37°C under a 5% CO2 atmosphere.
(§3) We analyzed the inhibitory effects of eight anthraquinone-amino acid derivatives on the proliferation of eight tumor cell lines and two normal cell lines in vitro using MTT assays. Cells were added to a 96-well plate with (5,000 cells per well in 100 µL RPMI-1640 medium). Cells were treated with different concentrations (10–100 μg/mL) of 8a–8h for 48 h and then incubated with 20 μL MTT (5 mg/mL) for another 4 h at 37°C. DMSO (150 μL) was then added to each well to dissolve the formazan crystals. The absorbance of each well was read at 490 nm on a microtiter plate ELISA reader. The mean values were obtained from a minimum of three parallel experiments. IC50 values were calculated.

For data set [2], the system named is FHC. Briefly: MTT cell proliferation assay, normal colorectal cells FHC. The format is cell-based. Particulars: FHC normal human colorectal mucosa, 48 h. As for the experimental part:
as §1, §2, §3
(In general: Formazan colour is commonly taken as a measure of viable cells.)

Data set [3] deals with HeLa. Briefly: MTT cell proliferation assay, HeLa. To be noted: Homo sapiens, HeLa cervical cancer, 48 h. In kind it is cell-based. The protocol:
as §1, §2, §3

For data set [4], the system named is EC9708. Briefly: MTT cell proliferation assay, EC9706 (Table 1: EC9708). The format is cell-based. Particulars: Homo sapiens, EC9708 esophageal cancer, 48 h. The protocol: as §1, §2, §3
In data set [5] the test system is MCF-7. Briefly: MTT cell proliferation assay, MCF-7. To be noted: Homo sapiens, MCF7, MCF-7 breast cancer, 48 h. In kind it is cell-based. As for the experimental part:
as §1, §2, §3

For data set [6], the system named is HCT116. Briefly: MTT cell proliferation assay, HCT116. The format is cell-based, human. Particulars: for IC50: Homo sapiens, HCT-116, HCT116 colon cancer, 48 h. As for the experimental part:
as §1, §2, §3

Data set [7] deals with SGC-7901. Briefly: MTT cell proliferation assay, SGC-7901. In kind it is cell-based, human. Particulars: SGC-7901 gastric cancer. As for the experimental part: as §1, §2, §3
Data set [8] relates to HepG2. Briefly: MTT cell proliferation assay, HepG2. The format is cell-based. Particulars: Homo sapiens, HepG2 liver cancer, 48 h. The protocol: as §1, §2, §3
Data set [9] deals with QBC939. Briefly: MTT cell proliferation assay, QBC939. In kind it is cell-based. Particulars: Homo sapiens, QBC939 cholangiocarcinoma, 48 h. As for the experimental part: as §1, §2, §3
The test system of data set [10] is HL-7702. Briefly: MTT cell proliferation assay, normal liver cells HL-7702. To be noted: L02, HL-7702 normal human hepatocyte, 48 h. The format is cell-based. As for the experimental part:
as §1, §2, §3

On the set-up of data set [11]: method as in PMID 27111664, PMID 28811348. Particulars: background statement, no own measurement; cited from earlier work.
Details of data set [12]: method as in PMID 24096626. To be noted: on entering the bloodstream; cited from earlier work.
Details of data set [13]: method as in earlier work. Particulars: cell line not given; compared with 8b 27.87 μg/mL; cited from earlier work.
Data set [14] deals with HCT116 cells. Briefly: MTT cell viability with or without zVAD-FMK. The format is cell-based, human. To be noted: zVAD-FMK 5 mM alone, 24 h. The source says:
Caspases represent a key molecular group in the regulation of apoptosis. In caspases, there is an upstream and downstream relationship between the initiator of apoptosis and executioner. Caspase 3 is one of the key executers of apoptosis, as it is either partially or totally responsible for the proteolytic cleavage of many key proteins. For example, when caspase 9 is activated, it activates caspase 3, which ultimately triggers cell apoptosis. After detecting the expression of the corresponding Bcl-2 family proteins after 8a treatment by western blotting, we went on to detect the expression levels of PARP, caspase 9, cleaved caspase 9, caspase 3, and cleaved caspase 3 proteins. […] After 24 h of treatment with zVAD-FMK, cell viability is 93%.
Figure 7 Effect of 8a on apoptosis-related protein expression. […] PARP, caspase 3, cleaved caspase 3, caspase 9, cleaved caspase 9, Bcl-2, phosphorylated Bcl-2, Bcl-XL, phosphorylated Bcl-xL and Bax were detected by western blot analysis; β-actin was used as a loading control in each lane. Representative data of three independent experiments are shown; (C) and (D) Grayscale analysis of the relative expression of apoptosis-related proteins detected by Western blotting. […] (E) Cells were exposed to 8a (20 μg/mL) and/or zVAD-FMK ([…]) for 24 h, and cell viability was measured by MTT assay. […]

[15] abbreviates: Homo sapiens, SGC-7901, 48 h, read-out: IC50.

On to `CC(C)C(NC(=O)c1ccc2c(c1[N+](=O)[O-])C(=O)c1ccccc1C2=O)C(=O)O` (stereo not shown) [Compound 8b, 1-nitro-2-acyl-anthraquinone valine], for which the IC50 in [1] is 42.4 ± 0.68 µg/mL (≈ 107 µM); in data set [2], greater than 1000 µg/mL; in data set [3] it was 27.87 ± 0.22 µg/mL (≈ 70.3 µM); in data set [4], 38.94 ± 0.02 µg/mL (≈ 98.2 µM); in data set [5] it was 30.81 ± 0.05 µg/mL (≈ 77.7 µM); in [6] it was 21 ± 0.38 µg/mL (≈ 53 µM). The IC50 was 67.98 ± 0.18 µg/mL (≈ 172 µM) in data set [7] (setting [15]), 44 ± 0.53 µg/mL (≈ 111 µM) in data set [8], 72.88 ± 0.16 µg/mL (≈ 184 µM) in [9] and greater than 1000 µg/mL in data set [10].
Regarding `O=C1c2ccccc2C(=O)c2c1ccc(C(=O)NC(Cc1ccccc1)C(=O)O)c2[N+](=O)[O-]` (stereo not shown) [Compound 8c], the melting point was greater than 250 °C. The molecule further returned an IC50 in data set [1] of 39.5 ± 0.31 µg/mL (≈ 88.9 µM). In addition, the IC50 in data set [2] is greater than 1000 µg/mL. In addition, it took 25.94 ± 0.22 µg/mL (≈ 58.4 µM) to reach half-maximal inhibition in data set [3] (IC50). The IC50 in [4] is 30.24 ± 0.23 µg/mL (≈ 68 µM). Moreover, it took 28.26 ± 0.13 µg/mL (≈ 63.6 µM) to reach half-maximal inhibition in data set [5] (IC50). This molecule gave an IC50 in data set [6] of 30.12 ± 0.02 µg/mL (≈ 67.8 µM). Moreover, the IC50 in [7] (setting [15]) was 61.6 ± 0.14 µg/mL (≈ 139 µM). The molecule further registered an IC50 in [8] of 58.34 ± 0.22 µg/mL (≈ 131 µM). The IC50 in data set [9] is 34.2 ± 0.42 µg/mL (≈ 77.1 µM). In data set [10], the IC50 is greater than 1000 µg/mL.
For the molecule `O=C(O)CNC(=O)c1ccc2c(c1[N+](=O)[O-])C(=O)c1ccccc1C2=O` [Compound 8d], the IC50 was 43.08 ± 0.05 µg/mL (≈ 122 µM) in data set [1]; greater than 1000 µg/mL in [2]; 28.7 ± 0.17 µg/mL (≈ 81 µM) in [3]; 41.47 ± 0.14 µg/mL (≈ 117 µM) in data set [4]; 26.87 ± 0.06 µg/mL (≈ 75.8 µM) in [5]; 27.75 ± 0.11 µg/mL (≈ 78.3 µM) in [6]. The IC50 is 60.83 ± 0.12 µg/mL (≈ 172 µM) in data set [7] (setting [15]), 40.11 ± 0.02 µg/mL (≈ 113 µM) in data set [8], 36.71 ± 0.04 µg/mL (≈ 104 µM) in data set [9] and greater than 1000 µg/mL in [10].
Turning to `O=C1c2ccccc2C(=O)c2c1ccc(C(=O)N1CCCC1C(=O)O)c2[N+](=O)[O-]` (stereo not shown) [Compound 8e], the IC50 is 60.49 ± 0.07 µg/mL (≈ 153 µM) in data set [1]; greater than 1000 µg/mL in data set [2]; 48.82 ± 0.13 µg/mL (≈ 124 µM) in data set [3]; 47.35 ± 0.21 µg/mL (≈ 120 µM) in data set [4]; 31.31 ± 0.13 µg/mL (≈ 79.4 µM) in [5]; 35.03 ± 0.25 µg/mL (≈ 88.8 µM) in data set [6]. In addition, the IC50 in [7] (setting [15]) is 60.5 µg/mL (≈ 153 µM); in data set [7] (48 h) it was 72.31 ± 0.33 µg/mL (≈ 183 µM); in data set [8] it was 49.07 ± 0.08 µg/mL (≈ 124 µM); in data set [9], 37.73 ± 0.23 µg/mL (≈ 95.7 µM); in [10] it was greater than 1000 µg/mL.
Take `CC(NC(=O)c1ccc2c(c1[N+](=O)[O-])C(=O)c1ccccc1C2=O)C(=O)O` (stereo not shown) [Compound 8f]: the IC50 in data set [1] was 155.38 ± 0.14 µg/mL (≈ 422 µM); in data set [2] it was greater than 1000 µg/mL; in [3], 241.31 ± 0.13 µg/mL (≈ 655 µM); in data set [4], 257.31 ± 0.2 µg/mL (≈ 699 µM); in data set [5], 342.19 ± 0.22 µg/mL (≈ 929 µM); in [6], 98.43 ± 0.13 µg/mL (≈ 267 µM). Further, the IC50 in [7] (setting [15]) was 165.3 ± 0.21 µg/mL (≈ 449 µM); in data set [8], 296.42 ± 0.21 µg/mL (≈ 805 µM); in data set [9] it was 357.52 ± 0.08 µg/mL (≈ 971 µM); in data set [10], greater than 1000 µg/mL. Moreover, the “proliferation of HCT116 cells (in words)” value in data set [6] is recorded as “significantly inhibited”.
Consider `CSCCC(NC(=O)c1ccc2c(c1[N+](=O)[O-])C(=O)c1ccccc1C2=O)C(=O)O` (stereo not shown) [Compound 8g], for which the IC50 in data set [1] is 158.37 ± 0.04 µg/mL (≈ 370 µM); in [2], greater than 1000 µg/mL; in data set [3], 122.52 ± 0.05 µg/mL (≈ 286 µM); in data set [4], 300.18 ± 0.11 µg/mL (≈ 701 µM); in data set [5] it was 275.52 ± 0.07 µg/mL (≈ 643 µM); in data set [6], 86.49 ± 0.02 µg/mL (≈ 202 µM). The IC50 in data set [7] (setting [15]) is 235.81 ± 0.02 µg/mL (≈ 550 µM); in data set [8], 520.52 ± 0.22 µg/mL (≈ 1210 µM); in data set [9], 290.94 ± 0.05 µg/mL (≈ 679 µM); in data set [10] it was greater than 1000 µg/mL. In addition, the “proliferation of HCT116 cells (in words)” value in [6] is on record as “significantly inhibited”.
`O=C(O)CCC(NC(=O)c1ccc2c(c1[N+](=O)[O-])C(=O)c1ccccc1C2=O)C(=O)O` (stereo not shown) [Compound 8h]: the IC50 in [1] was 119.93 ± 0.03 µg/mL (≈ 281 µM); in [2] it was greater than 1000 µg/mL; in [3], 334.28 ± 0.04 µg/mL (≈ 784 µM); in data set [4] it was 112.41 ± 0.03 µg/mL (≈ 264 µM); in [5], 546.68 ± 0.31 µg/mL (≈ 1280 µM); in [6], 100.38 ± 0.04 µg/mL (≈ 235 µM). Also, the IC50 in data set [7] (setting [15]) is 200.35 ± 0.05 µg/mL (≈ 470 µM); in data set [8] it was 467.74 ± 0.06 µg/mL (≈ 1100 µM); in [9], 112.02 ± 0.03 µg/mL (≈ 263 µM); in data set [10], greater than 1000 µg/mL. Also, the “proliferation of HCT116 cells (in words)” value in data set [6] is “significantly inhibited”.
Regarding `Cc1cc(O)c2c(c1)C(=O)c1cc(O)cc(O)c1C2=O` [Emodin, emodin], in data set [11], the water solubility entry is “poor”.
Turning to `O=C1c2c(O)ccc(O)c2C(=O)c2c(NCCNCCO)ccc(NCCNCCO)c21` [MX, mitoxantrone], the “fraction bound to plasma proteins” value in data set [12] is recorded as greater than 95%.
On to `CC(C)C(NC(=O)c1cc(O)c2c(c1)C(=O)c1cccc(O)c1C2=O)C(=O)O` (stereo not shown) [rhein valine], for which, in [13], the IC50 is 33.51 µg/mL (≈ 87.4 µM).
`COC(=O)C[C@H](NC(=O)[C@H](C)NC(=O)[C@@H](NC(=O)OCc1ccccc1)C(C)C)C(=O)CF` [zVAD-FMK, reference compound] (Cbz-Val-Ala-Asp(OMe)-CH2F) gave a cell viability in data set [14] of 93%.

Usually IC50 stands for the concentration at which inhibition is half-maximal. As a reminder, the melting point is the temperature of the solid-liquid transition. Usually cell viability stands for the share of living cells, or the viability signal relative to a control.
